What all share (experiment): NCI anticancer screen, dose series, 48 h
Test [1] deals with MALME-3M melanoma.
For test [2], the system named is HS 578T breast.
Test [3] has as its system UO-31 renal.
In test [4] the test system is BT-549 breast.
For test [5], the system named is EKVX NSCLC.
For test [6], the system named is NCI-H23 lung.
In test [7] the test system is K-562 leukemia.
The subject of test [8] is NCI-H522 lung.
The test system of test [9] is MCF7 breast.
Test [10] concerns NCI-H460 lung.

Several values for one entry are separate records, joined by “and”; a condition that tells them apart may be missing. Identical values can stand only once.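 Five concentrations, 48 hours, 96-well plates. Abbreviation: GI50, concentration required for 50% inhibition of growth. At the TGI there is no net growth.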 Numbered stars: 1 amine (or outer) side, 2 acyl side, 3 side chain; on linkers, the order of the positions; unused ones are H or OH. Bridge positions count the residues as written; N and C are the ends. Square brackets hold non-standard residues; d marks the D form. Peptide text beside a SMILES is read from it. I, II: the chains in the order shown. Actinocin(1to9) = Cc1c2oc3c(C)ccc(C(=O)[*:2])c3nc-2c(C(=O)[*:1])c(N)c1=O; NMeY = CN[CH](Cc1ccc(O)cc1)C(=O)O; Sar = CNCC(=O)O A value given as a limit tells only on which side of the number the result lay.

Turning to `NC(Cc1ccccc1)c1nccs1` (configuration not stated), the TGI in test [1], in test [2], in [3], in [4], in [5] and in test [6] was greater than 100 µM in each case. In addition, the TGI in test [7], in test [8] and in test [9] was greater than 100 µM in each case.

For `C/C=C(\C)C(=O)OC1/C=C(\C)CC/C=C(\C)CC2OC(=O)C(C)(OC(C)=O)C12` (configuration not stated), the TGI in test [1], in test [2], in [4], in test [5], in test [6] and in test [7] was greater than 100 µM in each case. Moreover, the TGI in test [8], in test [9] and in test [10] was greater than 100 µM each time.

Consider `COc1c(N2CCN(CN3C(=O)C(=Nc4ccc(S(=O)(=O)Nc5ncccn5)cc4)c4cc(Cl)ccc43)C(C)C2)c(F)cc2c(=O)c(C(=O)O)cn(C3CC3)c12` (configuration not stated), for which the GI50 in test [2] is 11.9 µM; in test [3] it was 37.5 µM; in test [4], 20400 nM; in test [5], 18900 nM; in test [6], 8.22 µM; in test [7], 21.5 µM. Moreover, the results for the GI50 in [8], in test [9] and in test [10] were greater than 50 µM, 11900 nM and 10.9 µM, respectively. Also, the TGI is 42.8 µM in test [2]; greater than 50 µM in [3]; greater than 50 µM in [4]; greater than 50 µM in test [5]; 18.4 µM in test [6]; greater than 50 µM in [7]. The TGI in [8] was greater than 50 µM; in test [9] it was 44.4 µM; in test [10], 46 µM.

As for `CCOC(=O)/C=C/c1cccc(F)c1`, the TGI in test [1], in test [3], in test [4], in test [5], in test [6] and in test [7] was greater than 100 µM in each case. Further, the TGI in [8], in test [9] and in [10] was greater than 100 µM throughout.

For `COCCNc1cncc(C(N)=O)c1`, the TGI in test [2], in test [3], in test [4], in test [5], in test [6] and in test [7] was greater than 100 µM in each case. In addition, the TGI in test [8], in test [9] and in [10] was greater than 100 µM each time.

On to `O=C1N=C(Nc2nc(-c3csc(NC4=NC(=O)/C(=C\c5ccccc5)S4)n3)cs2)S/C1=C/c1ccccc1`, for which the GI50 in test [2] is greater than 50 µM; in [3], 17.5 µM; in [5] it was 12700 nM; in [6], 17.6 µM; in [7] it was 6.28 µM; in [8] it was 38.5 µM. The values for the GI50 in test [9] and in test [10] were 3700 nM and 12.8 µM, respectively. Also, the TGI is greater than 50 µM in test [2]; greater than 50 µM in test [3]; greater than 50 µM in test [5]; greater than 50 µM in [6]; 48.9 µM in test [7]; greater than 50 µM in test [8]. Also, the TGI in test [9] and in [10] was greater than 50 µM throughout.

In the case of `COc1ccc2nc3cc(Cl)ccc3c(Nc3cc(CN4CCCC4)c(O)c(CN4CCCC4)c3)c2n1`, the GI50 in test [1] is 1.83 µM; in test [3] it was 1.44 µM; in test [4], 2460 nM; in test [5], 2340 nM; in [6] it was 1.72 µM; in test [8], 1.47 µM. Moreover, the GI50 in test [9] was 1000 nM; in [10], 0.638 µM. Also, the TGI in [1] is 3.32 µM; in [3] it was 12.7 µM; in [4] it was 5.66 µM; in test [5], 9.68 µM; in [6] it was 3.88 µM; in [8], 3.14 µM. Also, the figures for the TGI in [9] and in [10] were 8.34 µM and 2.49 µM, respectively.

In the case of `COc1ccc(CC2C(=O)OC(C)C(NC(=O)c3c4nc5c(C(=O)NC6C(=O)NC(C(C)C)C(=O)N7CCCC7C(=O)N(C)CC(=O)N(C)C(Cc7ccc(OC)cc7)C(=O)OC6C)ccc(C)c5oc-4c(C)c(=O)c3N)C(=O)NC(C(C)C)C(=O)N3CCCC3C(=O)N(C)CC(=O)N2C)cc1` (configuration not stated) (I: TVP[Sar][NMeY](Me) / II: TVP[Sar][NMeY](Me); ester I:1-I:C, II:1-II:C; linker I:N-II:N via Actinocin(1to9); configuration not given here), the GI50 in test [2] is < 0.01 µM and 0.00387 µM; in test [5], < 10 nM and 69.6 nM; in [7], < 0.01 µM and 0.0039 µM; in test [8], 0.00264 µM; in test [9], < 10 nM and 3 nM; in test [10] it was less than 0.01 µM. Also, the TGI is < 0.01 µM and 0.0411 µM in test [2]; 0.246 µM in test [4]; 0.0734 µM and > 0.617 µM in test [5]; less than 0.01 µM in [7]; 0.018 µM in test [8]; 1.29 µM and > 1 µM in test [9]. In addition, the TGI in test [10] is less than 0.01 µM.

Take `N#Cc1cccc(C2C3=C(COC3=O)N(CCO)c3cc4c(cc32)OCO4)c1` (configuration not stated): the GI50 in test [2] is 1.3 µM; in [3], 2.63 µM; in [4], 1980 nM; in test [5], 2780 nM; in test [6] it was 3.58 µM; in [7], 0.294 µM. Also, the GI50 is 0.561 µM in test [8], 942 nM in [9] and 1.83 µM in [10]. Besides, the TGI in test [2] was 11.1 µM; in test [3] it was greater than 50 µM; in [4], greater than 50 µM; in test [5] it was greater than 50 µM; in [6], greater than 50 µM; in [7] it was greater than 50 µM. For the same compound, the TGI in test [8] is 4.7 µM; in test [9] it was greater than 50 µM; in test [10] it was greater than 50 µM.

As to `CCN(Cc1c(F)cccc1Cl)c1ccc(CO)c(Cl)c1`, the GI50 in test [1] is 14.1 µM; in [2], 18.2 µM; in test [3] it was 12.9 µM; in test [4] it was 16500 nM; in [6] it was 13.9 µM; in [7], 0.2 µM. For the same compound, the GI50 in test [8] is 13.8 µM; in [9] it was less than 20 nM; in test [10], less than 0.0249 µM. Further, the TGI in test [1] was determined as 28.6 µM; in test [2] it was 47 µM; in test [3], 26.1 µM; in test [4], 31.2 µM; in test [6], 33.8 µM; in test [7] it was 12.6 µM. For the same compound, the values for the TGI in test [8], in test [9] and in test [10] were 28.5 µM, 14.4 µM and 11.2 µM, respectively.

Regarding `O=C1CSC(c2c[nH]c3ccccc23)N1c1ccc(Cl)cc1Cl` (configuration not stated), the TGI in test [3], in [4], in test [5], in test [6], in test [7] and in test [8] was greater than 100 µM throughout. Moreover, the TGI in test [9] and in test [10] was greater than 100 µM each time.

As for `COc1cc2c3c(n(CCCNCCCN)c(=O)c2cc1OC)-c1cc2c(cc1C3=O)OCO2`, the GI50 was 2.21 µM in [1]; 6.28 µM in test [2]; 15.4 µM in test [3]; 6490 nM in test [4]; 5270 nM in [5]; greater than 100 µM in test [6]. Besides, the GI50 was 3.4 µM in test [7], 504 nM in test [9] and 4.07 µM in [10]. For the same compound, the TGI in test [1] is 8.66 µM; in test [2], 42.8 µM; in test [3] it was 38.5 µM; in test [4], 20.6 µM; in [5], 19.4 µM; in test [6], greater than 100 µM. Moreover, the TGI is 10.4 µM in test [7], 5.08 µM in test [9] and 18 µM in test [10].

For the compound `CC(C)(C)OC(=O)N[C@@H](Cc1ccccc1)C(=O)N(Cc1ccccc1)C1(C(=O)NCc2ccccc2)CCN(Cc2ccccc2)CC1`, the GI50 in test [1] is 3.02 µM; in [2], 4.22 µM; in test [3] it was 2.16 µM; in test [4], 2110 nM; in [6] it was 5.67 µM; in test [7], 3.39 µM. Further, the values for the GI50 in [8], in test [9] and in test [10] were 4.02 µM, 2820 nM and 3 µM, respectively. The TGI was greater than 100 µM in test [2]; greater than 100 µM in test [3]; 8 µM in [4]; greater than 100 µM in [6]; greater than 100 µM in [7]; greater than 100 µM in test [8]. Besides, the values for the TGI in test [9] and in [10] were 19.3 µM and 87.6 µM, respectively.

Take `N#CC1=C(N)NC(=O)NC12Nc1ccccc1N2`: the GI50 was greater than 100 µM in [1]; greater than 100 µM in test [2]; greater than 100000 nM in test [4]; greater than 100000 nM in [5]; greater than 100 µM in test [6]; greater than 100 µM in test [7]. Also, the GI50 in test [8] was greater than 100 µM; in [9], greater than 100000 nM; in test [10] it was greater than 100 µM. Also, the TGI in test [1], in test [2], in [4], in [5], in test [6] and in test [7] was greater than 100 µM in each case. Also, the TGI in test [8], in test [9] and in test [10] was greater than 100 µM in each case.

Consider `O=C(O)c1ccc(SSc2ccc(C(=O)O)cn2)nc1`, for which the TGI in [1], in test [2], in test [4], in test [5], in test [6] and in [7] was greater than 100 µM in each case. Moreover, the TGI in [8], in test [9] and in [10] was greater than 100 µM in each case.

As to `CCn1c2ccccc2c2cc(C(=O)c3ccc(C)c4ccccc34)ccc21`, the GI50 is 0.5 µM in [1]; 0.756 µM in [2]; 0.716 µM in test [3]; 574 nM in test [4]; 528 nM in [5]; 0.338 µM in test [7]. For the same compound, the GI50 is 311 nM in [9] and 0.356 µM in test [10]. The TGI in test [1] is greater than 100 µM; in test [2], greater than 100 µM; in test [3], greater than 100 µM; in test [4], 5.34 µM; in test [5], greater than 100 µM; in test [7], greater than 100 µM. Besides, the TGI in test [9] and in [10] was greater than 100 µM each time.

Consider `CN(C)CCCNc1nc2ccccc2c2[nH]c3ccccc3c12`, for which the GI50 in [2] was 3.04 µM; in [3], 1.69 µM; in [4], 1860 nM; in test [5], 1380 nM; in test [6], 0.752 µM; in [7], 1.64 µM. For the same compound, the results for the GI50 in test [8], in [9] and in test [10] were 1.32 µM, 417 nM and 0.737 µM, respectively. The TGI in test [2] was 9.61 µM; in test [3], 10.9 µM; in [4], 5.35 µM; in [5] it was 4.75 µM; in test [6] it was 1.64 µM; in [7], 22.2 µM. For the same compound, the TGI turned out to be 11.1 µM in test [8], 1.81 µM in test [9] and 3.28 µM in test [10].

For `COC(=O)[C@H](Cc1cn(C)cn1)NC(=O)[C@H](Cc1ccccc1)NC(=O)Nc1cc(C(F)(F)F)cc(C(F)(F)F)c1`, the GI50 in test [1] was 18.2 µM; in [2], 15.1 µM; in test [3], 16.6 µM; in [4] it was 19200 nM; in test [6], 17.4 µM; in test [7] it was 7.69 µM and 5.97 µM. Besides, the GI50 in test [8] is 11.7 µM; in test [9] it was 2580 nM and 5030 nM; in test [10], 14.2 µM. Moreover, the TGI in [1] came to 34.2 µM; in [2] it was 45.1 µM; in [3], 30.5 µM; in [4] it was 34.5 µM; in [6], 33 µM; in test [7], 20.5 µM. Moreover, the TGI is 24.7 µM in [8]; 9.73 µM and 29.4 µM in [9]; 29.7 µM in test [10].

(Values after PubChem BioAssay (NCI).)
